One data set deals with MCF-7 cells. The following applies: cited from earlier work.
Data set [1] in a line: Disposition and elimination of [14C]-radioactivity after single oral. The class given is in vivo, female Crl:WI(Han) rats.
The nature of data set [2]: Elimination and distribution after repeated oral administration. It counts as in vivo, female Crl:WI(Han) rats. As to conditions: […] mg/kg for 5 days.
Data set [3] in a line: Disposition of [14C]-radioactivity after IV administration of TBBPA. As to conditions: IV 25 mg/kg. It counts as in vivo, female Crl:WI(Han) rats.
Data set [4] in a line: Plasma toxicokinetics of free TBBPA after oral or IV administration. It counts as in vivo, female Crl:WI(Han) rats. The following applies: for AUC: free TBBPA in plasma; for half-life: iv, 25 mg/kg.
The nature of data set [5]: Biliary elimination in bile-duct cannulated rats after oral dose. It counts as in vivo, female Crl:WI(Han) rats. The following applies: oral […] mg/kg, 6 h.
The subject of data set [6] is rats. As to conditions: single dose by gavage to rats; cited from earlier work.
The conditions of data set [7]: male SD rats, cited from earlier work; for Cmax: read-out: plasma Cmax.
For data set [8] the following is noted: 20 mg/kg, male F-344 rats; cited from earlier work.
A further data set relates to TTR. As to conditions: cited from earlier work.
Data set [9] relates to rat thyroid hormone receptor. As to conditions: cited from earlier work.
The test system of the next data set is human transthyretin. The following applies: cited from earlier work.
The next data set relates to MtT/E-2 cells. As to conditions: lower extent than bisphenol A; cited from earlier work.
The subject of data set [10] is progesterone receptor (PR). As to conditions: transfected yeast; cited from earlier work.
In a further data set the test system is estradiol sulfation. The following applies: in vitro; cited from earlier work.
Data set [11] has as its system estrogen sulfotransferase SULT1E1. As to conditions: crystallographic studies; cited from earlier work.
Data set [12] deals with rats. As to conditions: cited from earlier work.

Read-outs that look alike come from different tables or passages of the source.

In the case of `CC(C)(O)c1cc(Br)c(O)c(Br)c1` [2,6-dibromo-4-[2-hydroxypropane-2-yl]-phenol], in the data set on MCF-7 cells, the estrogenic activity result was “estrogenic activity”.

As to `COC(C)(C)c1cc(Br)c(O)c(Br)c1` [2,6-dibromo-4-[2-methoxypropane-2-yl]-phenol], the estrogenic activity result with MCF-7 cells is “estrogenic activity”.

By AUC is commonly meant concentration integrated over time. A lower AUC goes with less exposure. A word on the half-life: it is the time needed for the level to fall by half in the phase considered. As usually defined, the Cmax is the peak of the concentration-time curve. One may read the Tmax as the time at which the peak concentration occurs. For `CC(C)(c1cc(Br)c(O)c(Br)c1)c1cc(Br)c(O)c(Br)c1` [TBBPA, 2,2′,6,6′-Tetrabromo-4,4′-isopropylidene diphenol], the results for the “dose recovery in feces in 72 h” value in data set [1] (oral 25 mg/kg), in [1] (oral 1000 mg/kg) and in data set [1] (oral […] mg/kg) were 95.7 ± 3.5%, 98.8 ± 2.2% and 94.3 ± 3.6%, respectively. Besides, the “dose recovered in urine” value in data set [1] (oral 25, 250 or 1000 mg/kg, 72 h) is on record as 0.2–2 % of dose; in [2] (24 h after final dose), “Less than 1%”. Also, in data set [1] (oral […] mg/kg), the “radioactivity in tissues at 24 h” value was less than 2%. Also, the “[14C]-radioactivity, blood” value in [1] (oral […] mg/kg, 1 h) is 0.6 ± 0.2 % dose; in data set [1] (oral […] mg/kg, 3 h), 0.4 ± 0.2 % dose; in data set [1] (oral […] mg/kg, 24 h), 0.06 ± 0.05 % dose. Besides, the “[14C]-radioactivity, feces” value in data set [1] (oral […] mg/kg, 6 h) was 0.1 ± 0.1 % dose; in data set [1] (oral […] mg/kg, 24 h), 82 ± 18 % dose. Besides, the “[14C]-radioactivity, urine” value was determined as 1.2 ± 0.7 % dose in data set [1] (oral […] mg/kg, 6 h) and 0.3 ± 0.1 % dose in data set [1] (oral […] mg/kg, 24 h). For the same compound, the “[14C]-radioactivity, large intestine” value is 0.3 ± 0.1 % dose in [1] (oral […] mg/kg, 24 h) and 3.2 ± 3% in data set [3] (6 h post-dosing). Also, the “administered [14C]-radioactivity detected in tissues” value in [1] (tissues collected at 72 h following oral doses) is less than 0.1%. Further, in [2] (24 h after final ([14C]) dose), the “terminal dose recovered from feces” value was found to be 84 ± 8%. The tissue retention result in data set [2] (24 h after final dose) is given as “minimal”. Further, the “administered radioactivity eliminated in feces within 6 h” value in data set [3] is recorded as “Approx. 10%”. Besides, in data set [3], the “administered radioactivity eliminated in urine within 6 h” value was approximately 1%. Further, the “dose recovered in contents of large intestine” value in data set [3] (6 h post dose) is approximately 61%. Moreover, the “dose recovered in contents of small intestine” value in data set [3] (6 h post dose) is reported as “approx. 15%”. The “[14C]-radioactivity, all other tissues” value in [3] (6 h post-dose) is on record as “less than 1 % of the administered dose”. Further, in data set [3] (6 h post-dosing), the “[14C]-radioactivity, adipose” value turned out to be 1 ± 0.8%. Moreover, in data set [3] (6 h post-dosing), the “[14C]-radioactivity, liver” value is recorded as 1.8 ± 0.6%. Besides, the “[14C]-radioactivity, small intestine” value in data set [3] (6 h post-dosing) turned out to be 3.2 ± 3.1%. Besides, the “administered radioactivity remaining in plasma” value in data set [4] (IV 25 mg/kg, 6 h post dose) was approximately 2%. Besides, the figures for the AUC in data set [4] (IV (25 mg/kg)) and in data set [4] (Oral ([…] mg/kg)) were 4286 nmol·min/mL and 1729 nmol·min/mL, respectively. Also, the half-life in data set [4] (female, Crl:WI(Han), rat, plasma, distribution half-life, IV 25 mg/kg, two-compartment model) worked out at 2 min; in data set [4] (female, Crl:WI(Han), rat, plasma, terminal half-life, IV 25 mg/kg, non-compartmental analyses), 133 min; in data set [4] (female, Crl:WI(Han), rat, plasma, terminal half-life, IV 25 mg/kg, two-compartment model), 22 min. The Cmax in data set [4] (female, Crl:WI(Han), rat, plasma, po, 250 mg/kg) is 5.4 µM; in [7] (300 mg/kg), 103 µM; in data set [7] (oral 200 mg/kg), 23 µM; in data set [7] (oral 500 mg/kg), 34 µM; in data set [7] (oral 1000 mg/kg), 57 µM. Also, in data set [5], the “[14C]-radioactivity, bile” value is recorded as 6 ± 7 % dose. Also, the LD50 result in the data set on rats [6] is given as “greater than 5 g/kg”. In addition, the Tmax in data set [7] (oral 200, 500 and 1000 mg/kg) is 252 to 300 min. Besides, in data set [8], the systemic bioavailability is 1.6%. Also, the TTR binding result in the data set with TTR is reported as “T4 competitor”. Also, the “binding to thyroid hormone receptor” value in data set [9] was “high affinity”. In the data set with human transthyretin, the binding to transthyretin result was “bind”. Moreover, the cell proliferation entry in the data set on MtT/E-2 cells is listed as “enhanced proliferation”. In addition, in data set [10], the PR activity result was “antagonist”. For the same compound, the estrogenic activity result in the data set with MCF-7 cells is on record as “estrogenic activity”. Besides, the “effect on estradiol sulfation” value in the data set with estradiol sulfation was “inhibitor”. The “binding to SULT1E1” value in data set [11] was “high affinity”. In addition, in the data set with rats [12], the “toxicity after intraperitoneal administration” value was “hepatotoxicity and heme metabolism disturbances”.

The record behind these values is publication PMC4071299 (Toxicology Reports, 2014).
